The source of these data is a melting point compilation (Tetko et al.).

As usually defined, the melting point is the temperature of the solid-liquid transition. Turning to `CN(C)c1cccc2oc3c(cnn3-c3ccccc3)c(=O)c12`, the melting point is 184 to 186 °C.

For `O/N=C(\Cc1ccccc1)c1ccc2c3c(cccc13)CC2`, the melting point was 138 °C.

Molecule `NC(=O)Cc1nc(-c2ccc(F)cc2)cs1` gave a melting point of 182 °C.

`O=[N+]([O-])c1cc(C(F)(F)F)c(Cl)c([N+](=O)[O-])c1Nc1ncc(C(F)(F)F)cc1Cl` gave a melting point of 117 °C.

Consider `COc1ccccc1NC(=O)c1cnc(C(C)(C)C)cn1`, for which the melting point was 78 °C.

As for `O=C1OC(=O)C2Cc3ccccc3CC12` (configuration not stated), the melting point is 188 °C.

The molecule `C1=C(c2ccccc2)CCCC1` displayed a melting point of -11 °C.

With `OCc1c(F)cccc1Cl`, the melting point worked out at 43 °C.

`Nc1oc2ccc(Cl)cc2c(=O)c1C=O` displayed a melting point of 300 °C.

`O=C(O)Cc1cccc(Br)c1` had a melting point of 101 °C.

The molecule `NCC(=O)NCC(=O)O` registered a melting point of 262 to 264 °C.

`OCCC1CCCCC1` had a melting point of -20 °C.

Consider `O=C(O)c1cccc2c1OCCCO2`, for which the melting point is 68 to 70 °C.

Take `N#C/C(=N/Nc1ccccc1)c1nc(-c2ccc(Cl)cc2)cs1`: the melting point worked out at 178 °C.

In turn, `O=C(O)c1nsc(Cl)c1Cl` had a melting point of 169 °C.

Turning to `CN1C(=O)C(=NNC(N)=S)c2ccccc21`, the melting point is 245 °C.

On to `CCCCOC(=O)CCCC`, for which the melting point is -92.8 °C.

In turn, `COC(=O)C1CC2(C(=O)OC)C=CC1C2` (configuration not stated) gave a melting point of 38 °C.

Turning to `Cc1cc(O)c(C(=O)CC(=O)c2ccccc2)cc1Cl`, the melting point is 120 to 123 °C.

Turning to `Cc1ccc2sc(CO)cc2c1`, the melting point fell in the range of 93 to 94 °C.

The molecule `CC(C)CCOC(=O)C=Cc1ccc(C=CC(=O)OCCC(C)C)c([N+](=O)[O-])c1` displayed a melting point of 93 to 94 °C.

As to `CC1(C)CC(=O)c2cc(-c3ccccc3)n(Cc3ccc(Cl)cc3)c2C1`, the melting point was in the range of 115 to 117 °C.

Take `NC(=S)Nc1ccccc1C(F)(F)F`: the melting point lay within 158 to 159 °C.

With `CC1CCCC(C)(C)C1=O` (configuration not stated), the melting point was -31.8 °C.

As for `Cc1nc(-c2cccc(Br)c2)cs1`, the melting point was in the range of 56 to 60 °C.

Take `CC(=O)C=Cc1ccco1`: the melting point was 39.5 °C.

`N#CC(=CNc1ccccc1)c1ccccc1` showed a melting point of 156 °C.

On to `Cc1cc2c(o1)-c1c(oc3ccc(Cl)cc13)CCC2(C)c1ccccc1` (configuration not stated), for which the melting point was found to be 128 °C.

As for `COc1c(C(=O)O)csc1Cl`, the melting point was found to be 140 °C.

In turn, `CC(O)(c1ccc(Cl)cc1)c1ccc(Cl)cc1` displayed a melting point of 70 °C.

Turning to `CCCC(=O)C=Cc1ccc(O)c(O)c1`, the melting point came out at 132 °C.

`CN(c1c(F)c(F)c(C#N)c(F)c1F)N(O)O`: the melting point is 53 °C.

In turn, `CCOC(=O)c1c(NC(=S)Nc2cccc(Cl)c2)sc2c1CCCC2` returned a melting point of 175 to 177 °C.

Regarding `CC(=O)OC1CCC2(C)C(CCC3(C)C2C(=O)C=C2C4CC(C)(C(=O)O)CCC4(C)CCC23C)C1(C)C` (configuration not stated), the melting point was found to be 323 °C.

The molecule `O=[N+]([O-])c1ccccc1/C=C/c1nc2ccccc2[nH]1` yielded a melting point of 215 °C.

In turn, `CC(C)(C)OC(=O)N1CCC2(CC1)NC(=O)c1cc(Br)ccc1O2` had a melting point of 226 to 227 °C.

The molecule `Cc1ccc(C)n1-c1cc(Cl)c([N+](=O)[O-])cc1Cl` gave a melting point of 82 to 84 °C.

For the molecule `O=c1n(-c2ccccc2)c(=O)n2n1C1OC3CCC1C32` (configuration not stated), the melting point was determined as 144 °C.

`CCc1occc(=O)c1O` displayed a melting point of 162 °C.

On to `CCCCCCCCCCCCCCCC(=O)NCCO`, for which the melting point was 98.5 °C.

In turn, `CNC(=O)N(C)C` yielded a melting point of 75.5 °C.

With `CCN(CC)CC(=O)Nc1sc2c(c1C#N)CCCC2`, the melting point lay in the range of 170 to 171 °C.

For the molecule `NCCCNc1ncc(C(F)(F)F)cc1Cl`, the melting point was 60 to 65 °C.

In turn, `CC(CCC(=O)O)C1CCC2C3CCC4CCCCC4(C)C3CCC12C` (configuration not stated) gave a melting point of 164 °C.

For the molecule `Oc1c(Cl)c(Cl)cc(Cl)c1Cl`, the melting point was found to be 115 °C.

Regarding `Cn1cnc2ncnc(N)c21`, the melting point worked out at 323 °C.

In the case of `Cc1cc(Br)c(O)c2c1CCC2`, the melting point was in the range of 60 to 62 °C.

Molecule `CC(=O)NC(CCC(N)=O)C(=O)O` (configuration not stated) gave a melting point of 197 °C.

The molecule `CC(=O)Nc1cccc(NCC(=O)c2ccccc2)c1` displayed a melting point of 171 °C.

Molecule `CC(=O)OC1C(c2ccc(=O)oc2)C2(C)CCC3C(CCC4(O)CC(O)CCC34C)C23OC13` (configuration not stated) gave a melting point of 260 °C.

As for `CC(C)(C)c1ccc(CCO)cc1`, the melting point turned out to be 33 °C.

In turn, `C=COCCCCCCCCCCCCCCCC` registered a melting point of 16 °C.

`OC1CCOc2ccccc21` (configuration not stated) yielded a melting point of 41 to 45 °C.

In turn, `O=c1c2ccccc2oc2ncccc12` showed a melting point of 180 to 182 °C.

Take `O=C(O)C=CC(=O)Nc1cccc2ccccc12`: the melting point lay within 150 to 153 °C.

`COc1ccc2sc(C)nc2c1` yielded a melting point of 36 °C.

In the case of `Nc1ccnc(Br)c1`, the melting point was 98 °C.

Regarding `O[C@@H]1C#CCCCCC#C[C@@H](O)CC1`, the melting point worked out at 154 °C.

For the molecule `CC1(C)OC(=O)c2ccccc21`, the melting point was determined as 70 °C.

Turning to `O=[N+]([O-])c1cc(C=NNc2ccccc2)ccc1C=NNc1ccccc1`, the melting point worked out at 185 °C.

As to `O=C(Nc1ccccc1SSc1ccccc1NC(=O)c1ccccc1)c1ccccc1`, the melting point turned out to be 142 °C.

In the case of `Clc1ccccc1-c1ccccc1Cl`, the melting point turned out to be 61.5 °C.

Take `Cc1ccncc1CNC(=O)c1ccccc1`: the melting point was 112 °C.

Take `COc1ccc(CCl)c(C)c1CCl`: the melting point is 97 °C.

For the molecule `CCOC(=O)C1=C(C)NC(=O)NC1c1ccccc1C(F)(F)F` (configuration not stated), the melting point came to 203 °C.

Molecule `Nc1cccc(-c2cnco2)c1` registered a melting point of 92 to 95 °C.

In the case of `COC(=O)c1ccccc1C#N`, the melting point came out at 50 °C.

In the case of `Cc1c(C)c(N)c(C)c(C)c1N`, the melting point was 150 to 153 °C.

Regarding `Cn1c(-c2ccc(Cl)cc2)cnc1S`, the melting point was in the range of 244 to 247 °C.

Turning to `Nc1cccc(C(F)(F)F)c1Cl`, the melting point was 27 °C.

`CCOC(=O)c1sc2ncccc2c1N` came in with a melting point of 183 to 185 °C.

On to `NC(=S)c1ccc(C(F)(F)F)cc1`, for which the melting point was 136 to 137 °C.

The molecule `c1cc(OCC2CO2)cc(OCC2CO2)c1` (configuration not stated) displayed a melting point of 42.5 °C.

Molecule `O=[N+]([O-])c1ccc(-c2nnc3n2NC(c2ccccc2)S3)cc1` (configuration not stated) yielded a melting point of 220 °C.

Consider `CC(C)c1ccccc1Br`, for which the melting point was -59 °C.

The molecule `O=P(Oc1ccccc1)(Oc1ccccc1)Oc1noc2ccccc12` returned a melting point of 64 to 68 °C.

Consider `COC(=O)C1=C(N)Oc2cc(C)n(CCc3ccccc3)c(=O)c2C1c1ccc(OC)cc1` (configuration not stated), for which the melting point lay in the range of 211 to 213 °C.

Turning to `COC(=O)c1cc(Cl)ccc1NC(C)=O`, the melting point came to 130 °C.

`CC(C)S(=O)(=O)c1cnc(N2CCCCC2)nc1N` had a melting point of 155 to 158 °C.

On to `Clc1ccc(CSC(Cn2cncn2)=Nc2ccc(Cl)cc2Cl)cc1`, for which the melting point was 90 °C.

As for `Clc1nc(Br)[nH]c1Cl`, the melting point was 215 to 216 °C.

`CCN(CC)CCc1c[nH]c2ccccc12` yielded a melting point of 170 °C.

For the molecule `CCCCCCCCC=CCCCCCCCCO`, the melting point was 6 °C.

`Cn1nc(C(F)(F)F)c(C=O)c1Cl` had a melting point of 41 to 42 °C.

As for `Brc1ccc(-c2ccccc2)s1`, the melting point lay in the range of 83 to 85 °C.

`Cc1ccc2c(c1[N+](=O)[O-])C(=O)c1c(Cl)c(Cl)c(Cl)c(Cl)c1C2=O`: the melting point stood at 262 °C.

The molecule `O=C1C(=O)c2c3ccccc3cc3cccc1c23` returned a melting point of 268 to 270 °C.

As to `Cc1c[nH]c(-c2ccccc2)n1`, the melting point was found to be 175 °C.

On to `CN1CCN(Cc2ccccc2I)CC1`, for which the melting point lay within 37 to 38 °C.

`CC12CCC3C(CCC4CC(CC(=O)O)=CCC43C)C1CCC2=O` (configuration not stated) came in with a melting point of 175 to 178 °C.

In the case of `C=NCC#N`, the melting point was 129 °C.

The molecule `Brc1c(Br)c(Br)c(Oc2ccccc2)c(Br)c1Br` registered a melting point of 200 °C.

Consider `Oc1cc(O)ncn1`, for which the melting point turned out to be 300 °C.

Molecule `BrCc1c(CBr)c(CBr)c(CBr)c(CBr)c1CBr` gave a melting point of 292 °C.

Turning to `Cn1c2ccccc2c(=O)c2ccccc21`, the melting point lay in the range of 204 to 207 °C.

`Nc1ccc(C(c2ccccc2)(c2ccccc2)c2ccccc2)cc1` had a melting point of 258 °C.

As for `Cn1c(=O)c(C2=NNC(=O)C2=C2c3ccccc3-c3ccccc32)c(O)c2ccccc21`, the melting point was 295 °C.

`CCOc1nc2ccccc2c(=O)[nH]1` displayed a melting point of 178 to 179 °C.

`CCCOC(=O)CCC(=O)OCCC`: the melting point was -5.9 °C.

In turn, `O=C=Nc1ccc2c(c1)OCCOCCOCCOCCOCCO2` had a melting point of 61 to 63 °C.

In turn, `Cc1ccc(I)cc1F` registered a melting point of 23 °C.

Molecule `NNc1c(F)cc(F)cc1F` returned a melting point of 99 °C.

The molecule `CC1=NCCN1` yielded a melting point of 107 °C.

In the case of `NC(=S)Nc1ccccc1F`, the melting point lay in the range of 143 to 145 °C.

As for `CCOC(=O)C1=C(C)NC(C)=C(C(=O)OCC)C1`, the melting point was found to be 180 °C.

In turn, `CCN(CC)C(=O)Cl` displayed a melting point of -32 °C.

`CC(=O)Cc1c[nH]c2ccccc12` had a melting point of 116 °C.

Consider `c1ccc(Sc2ccc3ccccc3n2)cc1`, for which the melting point came to 48 °C.

Molecule `N#CCc1c[nH]c2ccccc12` gave a melting point of 36 °C.

Regarding `NC(c1ccccc1)(c1ccccc1)c1ccccc1`, the melting point was determined as 102 °C.

In turn, `COc1ccc(Cl)cc1C` registered a melting point of 34 °C.

In turn, `CC12CCC3(CC1CCC1C2CCC2(C)C1CCC2(C)O)OCCO3` (configuration not stated) displayed a melting point of 192 to 193 °C.
